ChEMBL document CHEMBL1150279, “Non-peptide gonadotropin-releasing hormone receptor antagonists” (J Med Chem, 2008)
Values belong to the compound of their own block, whether it stands above or below them.

Assays:
[1] = target: T1, Gonadotropin-releasing hormone receptor (Homo sapiens, UniProt P30968); assay: (§1) Binding affinity at human GnRH receptor
T1 sequence (P30968 whole entry): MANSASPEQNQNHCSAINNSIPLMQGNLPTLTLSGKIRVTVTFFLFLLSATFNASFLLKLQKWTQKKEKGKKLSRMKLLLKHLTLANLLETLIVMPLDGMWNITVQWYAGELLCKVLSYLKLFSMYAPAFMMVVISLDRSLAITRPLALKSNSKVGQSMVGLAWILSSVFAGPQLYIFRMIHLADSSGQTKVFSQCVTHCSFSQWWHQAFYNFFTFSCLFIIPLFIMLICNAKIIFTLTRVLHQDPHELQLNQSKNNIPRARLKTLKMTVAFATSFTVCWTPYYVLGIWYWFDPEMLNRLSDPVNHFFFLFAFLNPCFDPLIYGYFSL

[2] = target: T1, Gonadotropin-releasing hormone receptor; assay: Binding affinity at human GnRH receptor by calcium mobilization assay; format: functional
[3] = target: T2, Gonadotropin-releasing hormone receptor (Rattus norvegicus, UniProt P30969); assay: Antagonist activity at rat GnRH receptor assessed as luteinizing hormone release in rat pituitary cells; format: functional, cell-based, Pituitary gland cell; conditions: read-out: pA2 (converted)
T2 sequence (P30969 whole entry): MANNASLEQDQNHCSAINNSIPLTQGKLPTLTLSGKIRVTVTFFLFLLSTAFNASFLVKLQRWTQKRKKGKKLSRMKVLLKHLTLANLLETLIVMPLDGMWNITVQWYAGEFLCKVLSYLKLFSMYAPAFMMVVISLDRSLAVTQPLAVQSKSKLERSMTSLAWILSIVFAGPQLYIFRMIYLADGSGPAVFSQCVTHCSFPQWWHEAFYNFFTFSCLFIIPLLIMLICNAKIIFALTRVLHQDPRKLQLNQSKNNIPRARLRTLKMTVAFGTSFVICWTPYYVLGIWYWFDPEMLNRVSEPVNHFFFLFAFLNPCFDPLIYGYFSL

Rattus norvegicus = assay: Suppression of circulating luteinizing hormone in rat at 110 mg/kg, po relative to control; format: functional
[4] = target: T2, Gonadotropin-releasing hormone receptor; assay: Binding affinity at rat GnRH receptor
[5] = target: T1, Gonadotropin-releasing hormone receptor; assay: Binding affinity at human GnRH receptor by competition binding assay
[6] = Cmax in healthy male human at 200 mg; format: ADME, organism-based; set-up: dose 200 mg; conditions: in vivo
[7] = AUC (0 to 8 hrs) in healthy male human at 10 mg; format: ADME, organism-based; set-up: dose 10 mg, time < 8 hr; conditions: plasma
[8] = Cmax in healthy male human at 10 mg; format: ADME, organism-based; set-up: dose 10 mg; conditions: in vivo
[9] = AUC (0 to 8 hrs) in healthy male human at 200 mg; format: ADME, organism-based; set-up: dose 200 mg, time < 8 hr; conditions: plasma
[10] = AUC (0 to 6 hrs) in cynomolgus monkey at 10 mg/kg, po; format: ADME, organism-based, Macaca fascicularis; set-up: time < 6 hr, dose 10 mg/kg, route oral; conditions: plasma
[11] = Binding affinity at cynomolgus monkey GnRH receptor expressed in CHO cells; format: cell-based, Macaca fascicularis
[12] = Activity at cynomolgus monkey GnRH receptor expressed in CHO cells assessed as inhibition of arachidonic acid release; format: cell-based; conditions: Macaca fascicularis
[13] = Inhibition of circulating luteinizing hormone in cynomolgus monkey pituitary cells; format: functional, Macaca fascicularis, Pituitary gland cell
Cynomolgus monkey [14] = assay: Suppression of circulating luteinizing hormone in cynomolgus monkey at 10 mg/kg, po relative to baseline; format: functional, Macaca fascicularis
Cynomolgus monkey [15] = assay: Suppression of circulating luteinizing hormone in cynomolgus monkey at 30 mg/kg, po relative to baseline; format: functional, Macaca fascicularis
[16] = Tmax in postmenopausal women at 5 to 200 mg, po; format: ADME, organism-based; conditions: female, human, in vivo
[17] = Half life in postmenopausal women at 5 to 200 mg, po; format: ADME, organism-based; conditions: female, human, in vivo
Rhesus monkey = assay: Suppression of circulating luteinizing hormone in monkey; format: functional, Macaca mulatta
[18] = Oral bioavailability in monkey; format: ADME, organism-based, Macaca mulatta; conditions: rhesus monkey, in vivo
[19] = target: T2, Gonadotropin-releasing hormone receptor; assay: Binding affinity at rat GnRH receptor by competition binding assay
Plasma = assay: Protein binding in rat plasma; format: ADME, cell-free
[20] = Oral bioavailability in rat; format: ADME, organism-based; conditions: in vivo
[21] = target: T3, Gonadotropin-releasing hormone receptor (Macaca mulatta, UniProt Q8SPZ1); assay: Binding affinity at monkey GnRH receptor
T3 sequence (Q8SPZ1 whole entry): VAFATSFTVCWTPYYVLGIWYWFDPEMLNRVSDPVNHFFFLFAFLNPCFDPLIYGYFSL

[22] = target: T3, Gonadotropin-releasing hormone receptor; assay: Activity at rhesus monkey GnRH receptor by inositol phosphate functional assay
[23] = target: T4, Gonadotropin-releasing hormone receptor (Homo sapiens) (UniProt P30968); assay: as §1
T4 sequence (whole entry): T1 sequence (P30968 whole entry)

[24] = Binding affinity to alpha1 adrenergic receptor
[25] = target: T2, Gonadotropin-releasing hormone receptor; assay: Binding affinity at rat GnRH receptor by whole cell binding assay
[26] = target: 5-hydroxytryptamine receptor 2B (Homo sapiens) (UniProt P41595); assay: Binding affinity to 5HT2B receptor
5-hydroxytryptamine receptor 2B (Homo sapiens), sequence (P41595 whole entry): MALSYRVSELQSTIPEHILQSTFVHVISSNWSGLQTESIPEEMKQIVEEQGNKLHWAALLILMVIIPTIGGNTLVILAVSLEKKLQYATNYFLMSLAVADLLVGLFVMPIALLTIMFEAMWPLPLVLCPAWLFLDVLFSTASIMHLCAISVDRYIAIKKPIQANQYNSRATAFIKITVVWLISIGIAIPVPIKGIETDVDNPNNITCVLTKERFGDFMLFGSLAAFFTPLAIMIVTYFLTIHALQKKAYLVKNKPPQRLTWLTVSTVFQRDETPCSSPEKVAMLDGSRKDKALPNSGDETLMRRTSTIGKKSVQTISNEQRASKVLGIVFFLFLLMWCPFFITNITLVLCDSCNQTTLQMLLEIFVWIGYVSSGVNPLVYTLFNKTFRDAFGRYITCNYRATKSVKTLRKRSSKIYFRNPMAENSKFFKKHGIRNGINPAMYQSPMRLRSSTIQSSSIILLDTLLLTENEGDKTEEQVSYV

Ki [1]: 15 nM
Structure (SMILES): CSc1ccc(CN2CCc3c(c(=O)n(CCN(C)CCc4ccccn4)c(=O)n3Cc3c(F)cccc3F)C2)cc1

IC50 [2]: 3.4 µM
Structure (SMILES): CCSc1nc2cc(S(=O)(=O)NCc3ccccc3OC)ccc2n1Cc1ccccc1

Kb [3]: 1.58 nM
Structure (SMILES): CC[C@H]1OC(=O)[C@H](C)[C@@H](OC(=O)N2C(=O)OC[C@@H]2C)[C@H](C)[C@@H](O[C@@H]2O[C@H](C)C[C@H](N(C)CC3CC3)[C@H]2O)[C@@](C)(OC)C[C@@H](C)C(=O)[C@H](C)[C@H]2N(CCc3ccc(Cl)c(Cl)c3)C(=O)O[C@]12C
Activity (Rattus norvegicus): 20%

Ki [1]: 4.5 nM
Structure (SMILES): COc1cccc(-c2c3n(c(=O)n(C[C@H](N)c4ccccc4)c2=O)C(c2ccccc2F)CS3)c1Cl (stereo partly drawn)

Ki [1]: 14 nM
Structure (SMILES): C=C1C(Cl)=CC=C1c1c(C)n(Cc2c(F)cccc2F)c(=O)n(C[C@H](N)c2ccccc2)c1=O

IC50 [4]: 0.2 nM
Structure (SMILES): Cc1cc(C)cc(-c2[nH]c3c(c2[C@H](C)CNCCc2ccc(-c4nnn[nH]4)cc2)CN(C(=O)Cc2c(F)cccc2C(F)(F)F)CC3)c1

Ki [1]: 13 nM
Structure (SMILES): COc1cccc(-c2nn(Cc3c(F)cccc3C(F)(F)F)c(=O)n(C[C@H](N)c3ccccc3)c2=O)c1F

Ki [1]: 230 nM
Structure (SMILES): N[C@@H](Cn1c(=O)c(-c2ccccc2F)c2n(c1=O)C(c1ccccc1)CS2)c1ccccc1 (stereo partly drawn)

Ki [1]: 19 nM
Structure (SMILES): Cc1c(-c2ccccc2F)c(=O)n(C[C@H](N)c2ccccc2)c(=O)n1Cc1ccccc1F

Ki [1]: 110 nM
Structure (SMILES): COc1cccc(-n2c(=O)c(Cc3c(F)cccc3F)nn(C[C@H](N)c3ccccc3)c2=O)c1

IC50 [5]: 6.6 nM
Structure (SMILES): CCc1nc(C)c(CN2CCN(c3cccc4[nH]c(-c5ccc(C(C)(C)C)cc5)nc34)CC2)[nH]1

Cmax [6]: 274 ng/mL | AUC(0-t) at 8 h [7]: 173 ng·h/mL | Cmax [8]: 15 ng/mL | AUC(0-t) at 8 h [9]: 2560 ng·h/mL | AUC(0-t) at 6 h [10]: 0.85 µM·h | IC50 [11]: 0.6 nM | IC50 [12]: 10 nM
Structure (SMILES): CONC(=O)Nc1ccc(-c2sc3c(c2CN(C)Cc2ccccc2)c(=O)n(-c2ccccc2)c(=O)n3Cc2c(F)cccc2F)cc1 [SUFUGOLIX]
Activity [13]: 36 nM | Activity (Cynomolgus monkey [14]): 18% | Activity (Cynomolgus monkey [15]): 11%

IC50 [2]: 41 µM
Structure (SMILES): CCCn1c(SCc2cc([N+](=O)[O-])ccc2OC)nc2cc(NC(=O)NC(C)(C)C)cc(C(=O)NC)c21

Ki [1]: 23 nM
Structure (SMILES): COc1cccc(-c2c(C)n(Cc3c(F)cccc3F)c(=O)n(CC(C)(N)c3ccccc3)c2=O)c1F (stereo not drawn)

Tmax [16]: 24 min | half-life [17]: 162 min
Structure (SMILES): COc1cccc(-c2c(C)n(Cc3c(F)cccc3F)c(=O)n(C[C@H](N)c3ccccc3)c2=O)c1F
Activity (Rhesus monkey): 32%

IC50 [5]: 5.2 nM
Structure (SMILES): CC(C)(C)c1ccc(-c2nc3c(N4CCN(Cc5ccnc(S(C)(=O)=O)n5)CC4)cccc3[nH]2)cc1

Ki [1]: 0.5 nM
Structure (SMILES): COc1cccc(-c2c(C)n(Cc3c(F)cccc3C(F)(F)F)c(=O)n(C[C@H](N)c3ccccc3)c2=O)c1F

Ki [1]: 580 nM
Structure (SMILES): N[C@@H](Cn1c(=O)c(Cc2c(F)cccc2F)nn(-c2ccccc2F)c1=O)c1ccccc1

Ki [1]: 2.3 nM
Structure (SMILES): COc1cccc(-c2nn(Cc3c(F)cccc3C(F)(F)F)c(=O)n(C[C@H](N)c3ccccc3)c2=O)c1Cl

bioavailability [18]: 22%
Structure (SMILES): CN[C@@H](Cc1ccccc1)Cn1c(=O)c(-c2cccc(OC)c2F)c(C)n(Cc2c(F)cccc2F)c1=O

Ki [1]: 40 nM
Structure (SMILES): COc1cccc(-c2c3n(c(=O)n(C[C@H](N)c4ccccc4)c2=O)C(c2ccccc2F)CS3)c1F (stereo partly drawn)

Ki [19]: 3.8 nM | Activity (Plasma): 99.9%
Structure (SMILES): COc1cc(OC)c(NC(=O)c2ccc(Cc3cc4c(cc3C)C(C)(C)CCC4(C)C)o2)c(OC)c1

Ki [1]: 4.4 nM
Structure (SMILES): COc1cccc(-c2c(C)n(Cc3c(F)cccc3[S+](C)[O-])c(=O)n(C[C@H](N)c3ccccc3)c2=O)c1F (stereo partly drawn)

bioavailability [20]: 72% | IC50 [19]: 18 nM | IC50 [5]: 1.6 nM
Structure (SMILES): CCn1cc(CN2CCN(c3cccc4[nH]c(-c5ccc(C(C)(C)C)cc5)nc34)CC2)c(=O)[nH]c1=O

Ki [1]: 470 nM
Structure (SMILES): COc1cccc(-c2c(C)n(Cc3c(F)cccc3F)c(=O)n(C[C@H](C)N(C)CCc3ccccn3)c2=O)c1

Ki [1]: 230 nM
Structure (SMILES): N[C@@H](Cn1c(=O)c(-c2ccccc2F)c2n(c1=O)C(c1ccccc1F)CO2)c1ccccc1 (stereo partly drawn)

Ki [21]: 0.5 nM | IC50 [22]: 7 nM | Activity [23]: 0.4 nM
Structure (SMILES): Cc1cc(-c2c(OCC[C@@H]3CCN3)c3cc(C(=O)Nc4ccncn4)c(Cl)cc3[nH]c2=O)cc(C)c1C

Ki [1]: 220 nM
Structure (SMILES): N[C@@H](Cn1c(=O)c(-c2ccccc2F)c2n(c1=O)C(c1ccccc1F)CS2)c1ccccc1 (stereo partly drawn)

Activity [24]: 114 nM | IC50 [25]: 1.7 nM | Activity [26]: 165 nM
Structure (SMILES): Cc1cc(C)cc(-c2[nH]c3ccc(C(C)(C)C(=O)N4CC5CCC4CC5)cc3c2[C@H](C)CNCCc2ccncc2)c1

Ki [1]: 0.2 nM
Structure (SMILES): COc1cccc(-c2c(C)n(Cc3c(F)cccc3S(C)(=O)=O)c(=O)n(C[C@H](N)c3ccccc3)c2=O)c1F

Ki [1]: 110 nM
Structure (SMILES): N[C@@H](Cn1c(=O)c(-c2ccccc2F)c2n(c1=O)[C@@H](c1ccccc1)CS2)c1ccccc1

IC50 [2]: < 0.01 µM
Structure (SMILES): CC(C)(C)NC(=O)NCCc1nc2cc(S(=O)(=O)NCc3ccc(Cl)cc3)ccc2n1Cc1ccccc1

IC50 [2]: 10 µM
Structure (SMILES): CCSc1nc2cc(NC(=O)C3CC3)ccc2n1C(C)C

IC50 [5]: 800 nM
Structure (SMILES): FC(F)(F)c1nc2c(N3CCN(CCOc4cccc5[nH]c(=S)[nH]c45)CC3)cccc2[nH]1
